Consider 7 compounds from ChEMBL document CHEMBL1140559, “Synthesis and cytotoxic activity of various 5-[alkoxy-(4-nitro-phenyl)-methyl]-uracils in their racemic form” (Bioorg Med Chem Lett, 2007).

The source made the active and inactive calls. The rule behind the calls is not given here.

Holding throughout (assay type): functional, cell-based
Conditions in all cases: Homo sapiens

Assay [1] has as its system CCRF-CEM. Kind of assay: Cytotoxicity against lung resistance protein positive CEM cells.
The subject of assay [2] is K562-Tax. Description: Cytotoxicity against p-glycoprotein positive K562-Tax cells.
The test system of assay [3] is CCRF-CEM. Kind of assay: Inhibition of DNA synthesis in CEM cells at 5 times IC50.
Assay [4] relates to CCRF-CEM. Kind of assay: Inhibition of RNA synthesis in CEM cells at IC50.
Assay [5] has as its system CCRF-CEM. Kind of assay: Induction of apoptosis in CEM cells at IC50 after 24 hrs […]. For orientation: Tetrazolium assays rely on reduction of a dye to a coloured formazan, in cell work by metabolically active cells.
The test system of assay [6] is CCRF-CEM. Kind of assay: Inhibition of DNA synthesis in CEM cells at IC50.
The subject of assay [7] is CCRF-CEM. Description: Increase in RNA synthesis in CEM cells at IC50.

Regarding `CCCCCCCCCCOC(c1ccc([N+](=O)[O-])cc1)c1c[nH]c(=O)[nH]c1=O` (stereo not given), the outcome in assay [1] and in assay [2] was Active.

Regarding `CCCCCCCCCOC(c1ccc([N+](=O)[O-])cc1)c1c[nH]c(=O)[nH]c1=O` (stereo not given), the outcome in assay [1] and in assay [2] was Active.

`CCCCCCOC(c1ccc([N+](=O)[O-])cc1)c1c[nH]c(=O)[nH]c1=O` (stereo not given): the result in assay [3], in assay [4], in assay [5] and in assay [6] was Active.

In the case of `CCCCCCCCCCCCOC(c1ccc([N+](=O)[O-])cc1)c1c[nH]c(=O)[nH]c1=O` (stereo not given), the result in assay [1] and in assay [2] was Active.

For `CCCCCCCOC(c1ccc([N+](=O)[O-])cc1)c1c[nH]c(=O)[nH]c1=O` (stereo not given), the result in assay [1], in assay [2], in assay [3] and in assay [7] was Active.

On to `CCCCCCCCOC(c1ccc([N+](=O)[O-])cc1)c1c[nH]c(=O)[nH]c1=O` (stereo not given), for which the outcome in assay [1], in assay [2], in assay [3] and in assay [7] was Active.

Regarding `CCCCCCCCCCCOC(c1ccc([N+](=O)[O-])cc1)c1c[nH]c(=O)[nH]c1=O` (stereo not given), the outcome in assay [1] and in assay [2] was Active.
